# Like-named read-outs stand apart in the source and are kept apart here.
# Key:
# [1] = molecular target: T1, PDGF-Ra (Homo sapiens, UniProt P16234); assay: Inhibitory activity against PDGF-Ra phosphorylation by PDGF-AA stimulation using G292; format: cell-based; conditions: for IC50: > means inhibition at indicated concentration not more than 50%, < and << not less than 50%, read-out: PDGF (E) IC50
# T1 construct: host or cells: G-292 human osteosarcoma cells
# Method in brief: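 Phospho-PDGF-Ra ELISA: capture with PY-20 antiphosphotyrosine, detection with anti-PDGF-Ra and peroxidase secondary, read at 450 nm. Lysates came from G-292 osteosarcoma cells starved in 0.1% FBS, compound-treated 1 hr at 37° C, and stimulated with 50 ng/ml PDGF-AA for 5 min.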
# [2] = molecular target: T2, c-kit (Homo sapiens, UniProt P10721); assay: Inhibitory activity against c-kit autophosphorylation (MO7e cells, h-SCF); format: cell-based; conditions: for inhibition at 1 µM: Mo7e, at 1000 nM; for IC50: MO7e cells, read-out: c-kit IC50
# T2 construct: MO7e (human megakaryocytic leukemia cell line) which had been arrested for 20 hr; endogenous in cells; host or cells: MO7e human megakaryocytic leukemia cell line
# Method in brief: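 MO7e human megakaryocytic leukemia cells, arrested 20 hr, treated with compound 1 hr, then stimulated with 50 ng/ml h-SCF for 5 min and lysed. Lysates captured on immobilized anti-phosphotyrosine antibody, detected with anti-c-kit primary and HRP secondary antibody; absorbance at 450 nm.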
# [3] = figure within parentheses in −( ) or >1000( )
# T2 sequence (P10721 26-976): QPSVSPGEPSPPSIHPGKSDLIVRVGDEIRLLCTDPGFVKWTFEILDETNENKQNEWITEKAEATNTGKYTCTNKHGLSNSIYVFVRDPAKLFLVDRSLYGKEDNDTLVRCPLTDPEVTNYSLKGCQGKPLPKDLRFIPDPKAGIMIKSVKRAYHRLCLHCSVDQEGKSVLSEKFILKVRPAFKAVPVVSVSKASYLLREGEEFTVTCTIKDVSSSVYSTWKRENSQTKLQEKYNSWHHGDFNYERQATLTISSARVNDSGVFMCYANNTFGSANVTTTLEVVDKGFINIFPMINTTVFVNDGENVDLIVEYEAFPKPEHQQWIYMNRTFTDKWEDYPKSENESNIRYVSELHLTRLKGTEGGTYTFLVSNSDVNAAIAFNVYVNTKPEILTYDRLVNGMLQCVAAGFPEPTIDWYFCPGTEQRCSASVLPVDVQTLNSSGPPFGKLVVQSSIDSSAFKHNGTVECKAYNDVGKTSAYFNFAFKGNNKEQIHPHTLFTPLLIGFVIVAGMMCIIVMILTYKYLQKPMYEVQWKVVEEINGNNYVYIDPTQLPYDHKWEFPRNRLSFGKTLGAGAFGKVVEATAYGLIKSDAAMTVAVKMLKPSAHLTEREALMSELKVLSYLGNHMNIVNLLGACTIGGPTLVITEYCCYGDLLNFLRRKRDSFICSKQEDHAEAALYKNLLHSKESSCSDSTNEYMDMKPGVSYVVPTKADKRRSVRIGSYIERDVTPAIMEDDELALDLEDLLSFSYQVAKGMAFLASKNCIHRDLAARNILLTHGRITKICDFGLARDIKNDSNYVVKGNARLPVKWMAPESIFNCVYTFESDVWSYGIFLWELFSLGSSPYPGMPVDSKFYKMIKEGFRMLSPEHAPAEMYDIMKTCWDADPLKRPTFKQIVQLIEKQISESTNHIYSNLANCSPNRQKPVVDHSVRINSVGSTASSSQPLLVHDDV
# T1 sequence (P16234 24-1089): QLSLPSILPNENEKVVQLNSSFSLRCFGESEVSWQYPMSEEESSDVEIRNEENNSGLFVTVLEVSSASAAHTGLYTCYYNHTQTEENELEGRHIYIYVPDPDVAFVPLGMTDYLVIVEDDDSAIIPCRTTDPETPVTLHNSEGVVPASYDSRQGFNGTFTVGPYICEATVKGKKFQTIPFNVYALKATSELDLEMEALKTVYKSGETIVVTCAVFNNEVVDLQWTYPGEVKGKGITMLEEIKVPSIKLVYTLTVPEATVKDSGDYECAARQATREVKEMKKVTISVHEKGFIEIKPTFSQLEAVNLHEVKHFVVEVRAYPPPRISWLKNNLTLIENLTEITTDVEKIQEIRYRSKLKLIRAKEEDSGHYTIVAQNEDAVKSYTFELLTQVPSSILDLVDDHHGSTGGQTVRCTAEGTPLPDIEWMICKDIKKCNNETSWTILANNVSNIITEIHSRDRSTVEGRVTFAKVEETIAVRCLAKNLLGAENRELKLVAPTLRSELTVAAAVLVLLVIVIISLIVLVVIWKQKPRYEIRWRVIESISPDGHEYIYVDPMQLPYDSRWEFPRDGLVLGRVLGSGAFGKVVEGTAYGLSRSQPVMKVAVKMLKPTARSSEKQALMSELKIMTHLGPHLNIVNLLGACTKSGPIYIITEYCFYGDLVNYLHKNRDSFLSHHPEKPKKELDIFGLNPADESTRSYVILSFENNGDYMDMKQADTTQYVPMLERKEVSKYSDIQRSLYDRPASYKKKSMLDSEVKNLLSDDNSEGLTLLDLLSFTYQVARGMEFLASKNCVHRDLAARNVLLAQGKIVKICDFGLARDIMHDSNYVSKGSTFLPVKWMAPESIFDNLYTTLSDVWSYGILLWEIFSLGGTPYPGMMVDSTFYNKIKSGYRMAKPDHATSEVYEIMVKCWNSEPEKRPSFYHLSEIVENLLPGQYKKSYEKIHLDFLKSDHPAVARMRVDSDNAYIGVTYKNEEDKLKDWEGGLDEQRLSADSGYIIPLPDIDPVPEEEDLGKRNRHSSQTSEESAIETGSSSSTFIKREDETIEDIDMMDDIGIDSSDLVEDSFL
Structure (SMILES),IC50 [1] [nM],IC50 ([1]; Pharmacological Test Example 1) [nM],IC50 ([2]; h-SCF 50 ng/ml) [nM],other results
"CCN(CC)CCNC(=O)Nc1ccc(Oc2ncnc3cc(OC)c(OC)cc23)cc1Cl [Example 645, N-{2-Chloro-4-[(6,7-dimethoxy-4-quinazolinyl)oxy]phenyl}-N′-[2-(diethylamino)ethyl]urea]",23,–,–,"inhibition at 1 µM [2, 3]: 32%"
"COc1cc2nccc(Oc3cc(C)c(NC(=O)OC(C)c4cccc(C(F)(F)F)c4)cc3C)c2cc1OC (centres unmarked) [Example 89, 1-[3-(Trifluoromethyl)phenyl]ethyl N-{4-[(6,7-dimethoxy-4-quinolyl)oxy]-2,5-dimethylphenyl}carbamate]",–,14,–,inhibition at 1 µM ([2]; figure in parentheses in −( )): 35%
"COc1cc2ncnc(Oc3ccc(NC(=S)NC(=O)CCCCl)cc3)c2cc1OC [Example 1186, N-(4-Chlorobutanoyl)-N′-{4-[(6,7-dimethoxy-4-quinazolinyl)oxy]phenyl}thiourea]",< 10,–,–,IC50 ([2]; h-SCF stimulation): 405 nM
"COc1cc2ncnc(Oc3ccc(NC(=S)NC(=O)c4ccncc4)cc3)c2cc1OC [Example 1155, N-{4-[(6,7-Dimethoxy-4-quinazolinyl)oxy]phenyl}-N′-(4-pyridylcarbonyl)thiourea]",17,–,–,inhibition at 1 µM ([2]; figure in parentheses in −( )): 31%
"COc1cc2nccc(Oc3ccc(NC(=O)OCCCSc4cc(C)ccc4C)c(C)c3C)c2cc1OC [Example 170, 3-[(2,5-Dimethylphenyl)sulfanyl]propyl N-{4-[(6,7-dimethoxy-4-quinolyl)oxy]-2,3-dimethylphenyl}carbamate]",–,< 10,34,–
"COc1cc2ncnc(Oc3ccc(NC(=O)OCCCSc4ccc(Cl)cc4C)c(Cl)c3)c2cc1OC [Example 81, 3-[(4-Chloro-2-methylphenyl)sulfanyl]propyl N-{2-chloro-4-[(6,7-dimethoxy-4-quinazolinyl)oxy]phenyl}carbamate]",–,12,408,–
"COc1cc2ncnc(Oc3ccc(NC(=O)OCCCOc4ccc(Cl)cc4)c(C)c3C)c2cc1OC [Example 213, 3-(4-Chlorophenoxy)propyl N-{4-[(6,7-dimethoxy-4-quinazolinyl)oxy]-2,3-dimethylphenyl}-carbamate]",–,21,61,–
"COc1cc2nccc(Oc3ccc(NC(=S)NC(=O)c4cccc(C)c4C)cc3Cl)c2cc1OC [Example 1018, N-{3-Chloro-4-[(6,7-dimethoxy-4-quinolyl)oxy]phenyl}-N′-(2,3-dimethylbenzoyl)thiourea]",10,–,–,IC50 ([2]; h-SCF stimulation): 320 nM
"COc1cc2nccc(Oc3ccc(NC(=S)NC(=O)COc4ccccc4)cc3)c2cc1OC [Example 737, N-{4-[(6,7-Dimethoxy-4-quinolyl)oxy]phenyl}-N′-(2-phenoxyacetyl)thiourea]",< 10,–,–,IC50 ([2]; 50 ng/ml h-SCF): 523 nM
"COc1cc2nccc(Oc3ccc(NC(=S)NC(=O)N4CCCC4)cc3Cl)c2cc1OC [Example 1051, N-{3-Chloro-4-[(6,7-dimethoxy-4-quinolyl)oxy]phenyl}-N′-tetrahydro-1H-1-pyrrolylcarbonylthiourea]",14,–,–,IC50 ([2]; h-SCF stimulation): 418 nM
"CCCCC(CC)OC(=O)Nc1ccc(Oc2ccnc3cc(OC)c(OC)cc23)cc1 (centres unmarked) [Example 329, 1-Ethylpentyl N-{4-[(6,7-dimethoxy-4-quinolyl)oxy]phenyl}carbamate]",–,< 10,253,–
"COc1cc2nccc(Oc3cc(C)c(NC(=S)NCCN4CCOCC4)cc3C)c2cc1OC [Example 545, N-{4-[(6,7-Dimethoxy-4-quinolyl)oxy]-2,5-dimethylphenyl}-N′-[2-(1-morpholino)ethyl]thiourea]",70,–,–,IC50 ([2]; 50 ng/ml h-SCF): 254 nM
"COc1cc2ncnc(Oc3ccc(NC(=O)OCCCSc4ccc(C)cc4)c(Cl)c3)c2cc1OC [Example 41, 3-[(4-Methylphenyl)sulfanyl)propyl N-{2-chloro-4-[(6,7-dimethoxy-4-quinazolinyl)oxy]phenyl}-carbamate]",–,< 10,185,–
"CCCOC(=O)Nc1ccc(Oc2ccnc3cc(OC)c(OC)cc23)c(C)c1C [Example 215, Propyl N-{4-[(6,7-Dimethoxy-4-quinolin)oxy]-2,3-dimethylphenyl}carbamate]",–,8,< 30,–
"COc1cc2nccc(Oc3ccc(NC(=O)OCCCOc4ccc(F)cc4)cc3)c2cc1OC [Example 152, 3-(4-Fluorophenoxy)propyl N-{4-[(6,7-dimethoxy-4-quinolyl)oxy]phenyl}carbamate]",–,< 10,< 30,–
"COc1cc2nccc(Oc3ccc(NC(=O)OC(C)c4cccc(C(F)(F)F)c4)cc3)c2cc1OC (centres unmarked) [Example 87, 1-[3-(Trifluoromethyl)phenyl]ethyl N-{4-[(6,7-dimethoxy-4-quinolyl)oxy]phenyl}carbamate]",–,< 10,607,–

Structure (SMILES),IC50 [1] [nM],IC50 ([1]; Pharmacological Test Example 1) [nM],IC50 ([2]; h-SCF 50 ng/ml) [nM],other results
"COc1cc2ncnc(Oc3ccc(NC(=O)OC4CCCCCC4)cc3)c2cc1OC [Example 342, Cycloheptyl N-{4-[(6,7-dimethoxy-4-quinazolinyl)oxy]phenyl}carbamate]",–,< 10,< 30,–
"COc1cc2nccc(Oc3ccc(NC(=S)NC(=O)C4CC4C)cc3Cl)c2cc1OC (centres unmarked) [Example 1190, N-{3-Chloro-4-[(6,7-dimethoxy-4-quinolyl)oxy]phenyl}-N′-[(2-methylcyclopropyl)carbonyl]thiourea]",24,–,–,IC50 ([2]; h-SCF stimulation): 240 nM
"COc1cccc(OCCCOC(=O)Nc2ccc(Oc3ccnc4cc(OC)c(OC)cc34)c(C)c2C)c1 [Example 48, 3-(3-Methoxyphenoxy)propyl N-{4-[(6,7-dimethoxy-4-quinolyl)oxy]-2,3-dimethylphenyl}carbamate]",–,< 10,162,–
"COc1cc2ncnc(Oc3ccc(NC(=O)OCCN4CCOCC4)cc3)c2cc1OC [Example 399, 2-Morpholinoethyl N-{4-[(6,7-dimethoxy-4-quinazolinyl)oxy]phenyl}carbamate]",63,–,–,IC50 ([2]; 50 ng/ml h-SCF): 327 nM
"CCCCc1ccc(C(=O)NC(=S)Nc2ccc(Oc3ccnc4cc(OC)c(OC)cc34)c(F)c2)cc1 [Example 999, N-(4-Butylbenzoyl)-N′-{4-[(6,7-dimethoxy-4-quinolyl)oxy]-3-fluorophenyl}thiourea]",29,–,–,inhibition at 1 µM ([2]; figure in parentheses in −( )): 45%
"CCCCc1ccc(OC(=O)Nc2ccc(Oc3ccnc4cc(OC)c(OC)cc34)c(C)c2C)cc1 [Example 273, 4-Butylphenyl N-{4-[(6,7-dimethoxy-4-quinolyl)oxy]-2,3-dimethylphenyl}carbamate]",–,23,107,–
"COc1cc2nccc(Oc3ccc(NC(=O)OC(C)c4ccc(C)cc4)cc3)c2cc1OC (centres unmarked) [Example 132, 1-(4-Methylphenyl)ethyl N-{4-[(6,7-dimethoxy-4-quinolyl)oxy]phenyl}carbamate]",–,26,301,–
"COc1cc2nccc(Oc3ccc(NC(=O)OCCCSc4cc(C)ccc4C)cc3)c2cc1OC [Example 169, 3-[(2,5-Dimethylphenyl)sulfanyl)propyl N-{4-[(6,7-dimethoxy-4-quinolyl)oxy]phenyl}carbamate]",–,< 10,31,–
"COc1cc2ncnc(Oc3ccc(NC(=S)NCCCN4CCOCC4)cc3)c2cc1OC [Example 533, N-{4-[(6,7-Dimethoxy-4-quinazolinyl)oxy]phenyl}-N′-[3-(1-morpholino)propyl]thiourea]",64,–,–,IC50 ([2]; 50 ng/ml h-SCF): 623 nM
"COc1ccccc1CCC(=O)NC(=S)Nc1ccc(Oc2ccnc3cc(OC)c(OC)cc23)cc1 [Example 1025, N-{4-[(6,7-Dimethoxy-4-quinolyl)oxy]phenyl}-N′-[3-(2-methoxyphenyl)propanoyl]thiourea]",15,–,–,IC50 ([2]; h-SCF stimulation): 194 nM
"COc1cc2ncnc(Oc3ccc(NC(=S)NC(=O)CCC4CCCC4)cc3)c2cc1OC [Example 1132, N-(3-Cyclopentylpropanoyl)-N′-{4-[(6,7-dimethoxy-4-quinazolinyl)oxy]phenyl}thiourea]",< 10,–,–,IC50 ([2]; h-SCF stimulation): 146 nM
"COc1cccc(OC(=O)Nc2ccc(Oc3ccnc4cc(OC)c(OC)cc34)cc2)c1 [Example 214, 3-Methoxyphenyl N-{4-[(6,7-dimethoxy-4-quinolyl)oxy]phenyl}carbamate]",–,> 30,47,"PDGF (E) inhibition (%) in >30( ) ([1]; figure in parentheses in >30( ), concentration not defined, presumably 30 nM): 6%"
"COc1cc2ncnc(Oc3ccc(NC(=O)OC4CCCCC4)c([N+](=O)[O-])c3)c2cc1OC [Example 503, Cyclohexyl N-{4-[(6,7-dimethoxy-4-quinazolinyl)oxy]-2-nitrophenyl}carbamate]",87,–,–,"inhibition at 1 µM [2, 3]: 36%"
"COc1cc2nccc(Oc3ccc(NC(=S)NC(=O)CCSC)cc3)c2cc1OC [Example 1135, N-{4-[(6,7-Dimethoxy-4-quinolyl)oxy]phenyl}-N′-[3-(methylsulphenyl)propanoyl]thiourea]",< 10,–,–,IC50 ([2]; h-SCF stimulation): 239 nM
"COc1cc2nccc(Oc3ccc(NC(=S)NC(=O)c4ccc(-c5ccccc5)cc4)cc3F)c2cc1OC [Example 991, N-{4-[(6,7-Dimethoxy-4-quinolyl)oxy]-3-fluorophenyl}-N′-(4-phenylbenzoyl)thiourea]",19,–,–,inhibition at 1 µM ([2]; figure in parentheses in −( )): 20%
"COc1cc2ncnc(Oc3ccc(NC(=S)NCCN4CCCCC4)cc3)c2cc1OC [Example 517, N-{4-[(6,7-Dimethoxy-4-quinazolinyl)oxy]phenyl}-N′-[2-(1-piperidinyl)ethyl]thiourea]",38,–,–,"inhibition at 1 µM [2, 3]: 33%"
